Measurements as given in patent US10799439B2, “Coating of clay micro-tubes on surfaces of hair and natural fibers” (Louisiana Tech Research Corporation, priority 2017, dated 2020).

Experiment: dye/drug loading of halloysite micro-tubes (TGA)
Type: physicochemical
Conditions: SDS-hydrophobized halloysite lumen
Method: One example method of loading the micro-tubes with a (substantially) water soluble hair dye agent uses the dye Indigo carmine. The Indigo carmine dye is dissolved in 1 mL of DI water at a ratio of 4% by weight (i.e., 40 mg of dye) under sonication. 40 mg of halloysite is added to the dispersion and sonicated until a homogeneous dispersion is obtained. The dispersion is place under a low vacuum (e.g., at approximately 1 psi or less) for three cycles, one hour for each cycle. The halloysite is then thoroughly washed with DI water five time by centrifuging at 10,600 rcf for three minutes. The washed halloysite was then dried in a hot air oven at 60° C. This procedure produced a 6 to 8 weight percent dye loading efficiency, i.e., weight of dye with respect to the weight of clay micro-tubes. However, different procedures may be used and generally it is desirable to generate micro-tubes loaded to about 5 to 10 weight percent dye loading efficiency, but in other embodiments, the loading efficiency could be between 2 to 35 weight percent (or any sub-range in between, with one specific example being 2% to 15%).
One example method of loading the micro-tubes with a (substantially) water insoluble hair dye agent uses the dye Lawsone. It is preferable to modify the halloysite lumen surface to allow more ready binding of nonpolar molecules. […]

Structure (SMILES): CC1(C)C(C=C(Cl)Cl)C1C(=O)OCc1cccc(Oc2ccccc2)c1 (stereo not shown) [permethrin, Permethrin]
- content in loaded nanotubes (TGA analysis): 3-5 wt. %
